Data: PubChem BioAssay AID463199 (Broad Institute, 2010)
Calls of active or inactive are those of the source.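 How the source made its calls: active means AC50, the dose giving half-maximal effect, exceeds a fixed cutoff for a compound that rescues yeast growth under heat; inactive means the rest, inconclusive results apart.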

system: S. cerevisiae Burl-1 ts mutant growth, BacTiter-Glo, 38.5C 24 h; test: restored growth of temperature-sensitive Burl-1 yeast – whole organism, S. cerevisiae, Burl-1 ts mutant, luminescence, counter-screen for SUMOylation pathway inhibitor project, dose response (AID 463199)

Row | SMILES | AC50
1 | CCn1c(SCC(=O)Nc2nc(-c3ccccc3)cs2)nnc1-c1ccccc1 | > 42 µM (inactive)
2 | COC(=O)[C@@H](NC(=O)Nc1ccc(S(N)(=O)=O)cc1)C(C)C | > 42 µM (inactive)
3 | COCCCn1c2nc3ccccc3nc2c2c(=O)n(Cc3ccc(Cl)cc3)cnc21 | > 42 µM (inactive)
4 | CC(NC(=O)CCc1nnc(-c2ccc(-c3ccccc3)cc2)o1)c1nc2ccccc2[nH]1 (stereo not given) | > 42 µM (inactive)
5 | CCOC(=O)c1cc2c(ccn2-c2ccc(F)cc2)n1CC(=O)N1CCN(C(=O)c2ccco2)CC1 | > 42 µM (inactive)
6 | O=C(CN1c2ccccc2Sc2ccccc21)N/N=C/c1ccc(Cl)cc1Cl | > 21 µM (inactive)
7 | CCC(C)[C@H](NC(=O)OC(C)(C)C)C(=O)NCC1CCC(C(=O)N[C@@H](Cc2ccccc2)C(=O)O)CC1 (stereo not given in full) | > 42 µM (inactive)
8 | CC(=O)C1(c2ccccc2)CCNCC1 | > 21 µM (inactive)
9 | COc1cccc(Nc2nc(C)nc3c2oc2ccccc23)c1 | > 42 µM (inactive)
10 | O=C(CCCC(=O)N(CC(=O)NC1CCCC1)c1cccc(F)c1)Nc1ccccn1 | > 42 µM (inactive)
11 | CCCCCCCCCCOC(=O)Cn1c(COc2ccccc2OC)[n+](C)c2ccccc21 | > 42 µM (inactive)
12 | COc1cccc(CNC(=O)CCCn2nc(C)c3c(C)n(-c4ccccc4)nc3c2=O)c1 | > 42 µM (inactive)
13 | Cc1cccn2c(=O)c3cc(C(=O)NCc4cccnc4)c(=N)n(C(C)C)c3nc12 | > 42 µM (inactive)
14 | O=c1c2ccccc2nc(COc2ccccc2)n1/N=C/c1cn[nH]c1-c1ccccc1 | > 42 µM (inactive)
15 | O=C(NCc1cccnc1)C1CCN(S(=O)(=O)c2cccnc2)CC1 | > 42 µM (inactive)
16 | N#CCC(=O)N/N=C/c1ccc(OS(=O)(=O)c2ccccc2)cc1 | > 42 µM (inactive)
17 | Nc1ccc(C2(c3ccc(N)cc3)OC(=O)c3ccccc32)cc1 | > 42 µM (inactive)
18 | O=C(NCC(c1cccs1)N1CCOCC1)c1ccccc1NS(=O)(=O)c1cc([N+](=O)[O-])ccc1Cl (stereo not given) | > 42 µM (inactive)
19 | Cc1cnc(NC(=O)CSc2nc3ccccc3s2)s1 | > 42 µM (inactive)
20 | COc1ccc([N+](=O)[O-])c2c(=O)ccoc12 | > 42 µM (inactive)
21 | Cc1cccc(N/N=C/c2c(O)[nH]c(=S)[nH]c2=O)c1 | > 42 µM (inactive)
22 | CCc1ccc2nc(-c3cccc(C)c3)nc(SCC(=O)NCC3CCCO3)c2c1 (stereo not given) | > 42 µM (inactive)
23 | O=C(O)c1cn(Cc2ccccn2)c(=O)c2ccccc12 | > 42 µM (inactive)
24 | Cc1sc2nc(SCC(=O)NCCOCCO)n(C)c(=O)c2c1C | > 42 µM (inactive)

Row | SMILES | AC50
25 | CC(C)CCn1c(C(C)O)nc2ccccc21 (stereo not given) | > 42 µM (inactive)
26 | Cc1ccc(S(=O)(=O)N(C)CC(=O)O/N=C(\N)c2ccccn2)cc1 | 40.6 µM
27 | CCN1CSC(=S)N(Cc2ccc(OC)cc2)C1 | 7.78 µM
28 | COc1ccc(C2C3=C(CC(C)(C)CC3=O)Nc3n[nH]c(C)c32)cc1 (stereo not given) | > 42 µM (inactive)
29 | Cc1ccc(C(C(=O)Nc2ccc3c(c2)OCO3)N(C)C(=O)/C=C\c2ccc3c(c2)OCO3)cc1 (stereo not given) | > 42 µM (inactive)
30 | c1ccc(-c2csc(NC3CCCCC3)n2)cc1 | > 42 µM (inactive)
31 | CC(=O)Nc1ccc(CN2CCCC(CO)(Cc3cccc(Cl)c3)C2)cc1 (stereo not given) | > 42 µM (inactive)
32 | COc1ccc(CCNC(=O)C/C(C)=N/NC(=O)COc2ccc(C)cc2Br)cc1OC | > 42 µM (inactive)
33 | COc1ccc(/C=C(/C#N)S(=O)(=O)c2ccc(C)cc2)cc1 | > 21 µM (inactive)
34 | CCS(=O)c1ccccc1C(=O)O (stereo not given) | > 42 µM (inactive)
35 | C=CCn1c(-c2ccc(OC)cc2)nc2ccccc21 | > 42 µM (inactive)
36 | CCOC(=O)C1ON2CCCCC2C1(O)C(F)(F)F (stereo not given) | > 42 µM (inactive)
37 | CC1CCN(Cc2nc3c(c(=O)n(C)c(=O)n3C)n2CCc2ccccc2)CC1 | > 42 µM (inactive)
38 | CC1CCCCN1C(=O)C(Cc1ccccc1)N1C(=O)C2CCCCC2C1=O (stereo not given) | > 42 µM (inactive)
39 | Cc1cc(C)n2c(SCC(C)C)nnc2n1 | > 42 µM (inactive)
40 | CCCN1CCN(CCCNC(=O)CCn2nc(-c3ccccc3)ccc2=O)CC1 | > 42 µM (inactive)
41 | Cc1nnc(NC(=O)c2cccc(S(=O)(=O)N3CCCC3)c2)s1 | > 42 µM (inactive)
42 | Cc1ccc(C)c(NC(=O)COC(=O)c2ccc3c(c2)OCO3)c1 | > 42 µM (inactive)
43 | N#CCN(N=Nc1ccccc1)c1ccccc1 | > 42 µM (inactive)
44 | Cc1ccccc1CSc1n[nH]c(NS(=O)(=O)c2ccccc2)n1 | > 21 µM (inactive)
45 | O=C(Cc1cccs1)Nc1cccc(-c2nnc(-c3ccco3)o2)c1 | > 42 µM (inactive)
46 | COc1cc(C(=O)OCC(=O)NC(C)CCc2ccccc2)cc(OC)c1OC (stereo not given) | > 42 µM (inactive)
47 | COc1ccc(-n2c3c(cc(C(=O)NCC(=O)c4ccccc4)c2=O)C(=O)CC(C)(C)C3)cc1 | > 42 µM (inactive)
48 | COc1ccc(S(=O)(=O)N2CCCOC2CNC(=O)C(=O)NCCCN2CCOCC2)cc1C (stereo not given) | > 42 µM (inactive)

Row | SMILES | AC50
49 | O=C(CSc1nc(-c2ccccc2)cc(=O)[nH]1)Nc1ccc(Br)cc1 | > 42 µM (inactive)
50 | CCOC(=O)C1=C[C@]2(CC)CCCN3CCc4c(n1c1ccccc41)[C@@H]32 | > 42 µM (inactive)
51 | O=C(NCC1CCCO1)c1nn2c(C(F)(F)F)cc(-c3cc(Br)cs3)nc2c1Br (stereo not given) | > 42 µM (inactive)
52 | O=c1[nH]c(O)c(N=Nc2cc([N+](=O)[O-])ccc2O)c(=O)[nH]1 | > 42 µM (inactive)
53 | O=C(Nc1ccc(Cl)cc1)C1=Cc2ccccc2OC1 | > 42 µM (inactive)
54 | O=C(CSc1nc2ccc(Nc3nc(N4CCOCC4)nc(N4CCOCC4)n3)cc2s1)N1CCOCC1 | > 42 µM (inactive)
55 | O=C(O)c1c(C(=O)O)c(-c2ccc(F)cc2)n2c1CCC2 | > 42 µM (inactive)
56 | COc1cc(C(C2=C(O)CC(C)(C)CC2=O)C2C(=O)CC(C)(C)CC2=O)cc(OC)c1OC (stereo not given) | > 42 µM (inactive)
57 | CCN(CC(=O)N1CCCCCC1)S(=O)(=O)c1ccc(Cl)cc1 | > 42 µM (inactive)
58 | O=C(CN(CC1CCCO1)C(=O)CNS(=O)(=O)c1ccc(F)cc1)NCc1ccccc1 (stereo not given) | > 42 µM (inactive)
59 | Cc1c(C(=O)N2CCN(CCc3ccccc3)CC2)oc2ccccc12 | > 42 µM (inactive)
60 | O=C(c1ccco1)N1CCN(CC(=O)N2c3ccccc3CCc3ccccc32)CC1 | > 42 µM (inactive)
61 | c1ccc(CNc2ncnc3sc4c(c23)CCC4)nc1 | > 42 µM (inactive)
62 | Cc1ccc(-c2nc3c(=O)n(-c4ccccc4)c4c(c(=O)n(C)c(=O)n4C)c3o2)cc1 | > 42 µM (inactive)
63 | Cc1cc2ncc(C(=O)N=CN(C)C)cn2n1 | > 42 µM (inactive)
64 | COc1ccccc1NC(NC(=O)c1ccco1)C(=O)c1ccccc1 (stereo not given) | > 42 µM (inactive)
65 | COc1ccc(NC(=O)CSc2nccc(C)n2)cc1 | > 42 µM (inactive)
66 | COc1ccc(C(=O)Sc2ccc(Cl)cc2)cc1OC | > 42 µM (inactive)
67 | COc1ccc2c(c1)OC[C@H]1[C@H]2N2C(=O)c3cc(Br)ccc3NC(=O)[C@@]2(C)[C@H]1c1ccccc1 | > 42 µM (inactive)
68 | CC1=CS(=O)(=O)CC1Sc1ncn[nH]1 (stereo not given) | > 42 µM (inactive)
69 | O=C1CCC(C(=O)N2CCN(c3ccccc3)CC2)CN1CC1CCCCC1 (stereo not given) | > 42 µM (inactive)
70 | Cc1ccc(S(=O)(=O)NCC(=O)OCC(=O)c2ccc(Br)s2)cc1 | > 42 µM (inactive)
